Legend:
SIRT1 [1] = molecular target: T1, SIRT1 (Homo sapiens, UniProt Q96EB6); test: Trp mass spectrometry assay of SIRT1 activity; assay type: biochemical; details: for Emax: read-out: Trp % Fold Act
T1 sequence (Q96EB6 1-747): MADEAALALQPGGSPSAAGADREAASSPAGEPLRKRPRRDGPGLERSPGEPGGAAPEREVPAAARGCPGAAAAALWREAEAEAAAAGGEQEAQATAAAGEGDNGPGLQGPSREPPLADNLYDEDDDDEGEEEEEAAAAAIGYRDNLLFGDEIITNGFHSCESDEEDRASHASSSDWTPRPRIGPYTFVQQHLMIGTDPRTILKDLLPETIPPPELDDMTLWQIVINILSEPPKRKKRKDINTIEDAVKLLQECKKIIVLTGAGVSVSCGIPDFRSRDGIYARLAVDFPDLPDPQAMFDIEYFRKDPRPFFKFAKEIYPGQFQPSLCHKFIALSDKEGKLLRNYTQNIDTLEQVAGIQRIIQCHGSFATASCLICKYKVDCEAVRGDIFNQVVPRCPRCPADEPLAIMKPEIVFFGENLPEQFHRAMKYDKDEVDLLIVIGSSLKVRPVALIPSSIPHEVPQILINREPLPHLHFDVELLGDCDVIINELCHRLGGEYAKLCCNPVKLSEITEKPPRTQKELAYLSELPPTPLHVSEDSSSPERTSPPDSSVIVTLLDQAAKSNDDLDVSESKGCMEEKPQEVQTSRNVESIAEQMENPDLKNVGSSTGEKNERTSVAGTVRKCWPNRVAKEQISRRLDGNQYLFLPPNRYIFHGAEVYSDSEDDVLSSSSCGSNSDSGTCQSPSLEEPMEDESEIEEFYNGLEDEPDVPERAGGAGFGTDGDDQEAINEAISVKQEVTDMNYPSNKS
In short: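 Activation readout: EC1.5 (concentration raising activity 50% over control) and percent maximum activation, from mass-spec quantitation of OAADPR or deacetylated Trp peptide. Reaction: 0.5 μM acetylated Trp peptide, 120 μM βNAD+, 10 nM bacterially expressed N-His SIRT1, pH 7.5 HEPES buffer with […], 25 min at 25° C.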

SIRT1 [2] = molecular target: T1, SIRT1; test: TAMRA based mass spectrometry assay of SIRT1 activity; assay type: biochemical; details: for Emax: read-out: TAMRA % Fold Act
In short: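 Deacetylation of a biotinylated, TAMRA-tagged p53-based peptide (0.5 μM) by 10 nM His-tagged SIRT1 with 120 μM βNAD+, 25 °C for 25 min, pH 8 Tris-acetate buffer, across a compound concentration range. Quenched by formic acid and read by mass spec as product peptide or OAADPR; activity relative to DMSO reactions, nicotinamide defining maximal inhibition.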

[3] = Trp assay, concentration giving 150% activation of SIRT1
[4] = Trp assay, percent maximum fold activation
[5] = TAMRA assay, concentration giving 150% activation of SIRT1
[6] = TAMRA assay, percent maximum fold activation
[7] = Trp peptide substrate, concentration giving 150% activation of SIRT1
[8] = Trp peptide substrate, percent maximum fold activation
[9] = TAMRA peptide substrate, concentration giving 150% activation of SIRT1
[10] = TAMRA peptide substrate, percent maximum fold activation
[11] = concentration of test compound giving 150% activation of SIRT1, Trp peptide substrate
[12] = percent maximum fold activation of SIRT1, Trp peptide substrate
[13] = concentration of test compound giving 150% activation of SIRT1, TAMRA peptide substrate
[14] = percent maximum fold activation of SIRT1, TAMRA peptide substrate

Structure (SMILES) | Trp EC1.5 (μM) (SIRT1 [1]; [3]) | Emax (SIRT1 [1]; [4]) | TAMRA EC1.5 (μM) (SIRT1 [2]; [5]) | Emax (SIRT1 [2]; [6]) | Trp EC1.5 (μM) (SIRT1 [1]; [11]) | Emax (SIRT1 [1]; [12]) | TAMRA EC1.5 (μM) (SIRT1 [2]; [13]) | Emax (SIRT1 [2]; [14]) | also measured
COc1cccc(C(=O)Nc2cnn3ccc(-c4ccccc4C(F)(F)F)nc23)n1 [Compound 521] |  |  |  |  |  |  |  |  | Trp EC1.5 (SIRT1 [1]; [7]): A (EC1.5<1 μM); Emax (SIRT1 [1]; [8]): < 350%; TAMRA EC1.5 (SIRT1 [2]; [9]): A (EC1.5<1 μM); Emax (SIRT1 [2]; [10]): ≥ 350%
O=C(Nc1cccc(N2CCOCC2)n1)c1cnc2ccc(-c3ccccc3F)nn12 [Compound 133] |  |  |  |  | A (EC1.5<1 μM) | < 350% | A (EC1.5<1 μM) | ≥ 350% | 
Cc1cc(NC(=O)c2c(C)nc3ccc(-c4ccccc4OC[C@H](O)CO)nn23)nc(C)n1 [Compound 818] | B (EC1.5 1-25 μM) | < 350% | A (EC1.5<1 μM) | ≥ 350% |  |  |  |  | 
O=C(Nc1cnn2ccc(-c3ccccc3C(F)(F)F)nc12)c1cccc(CN2CCOCC2)n1 [Compound 255] | B (EC1.5 1-25 μM) | < 350% | A (EC1.5<1 μM) | ≥ 350% |  |  |  |  | 
Cc1c(-c2ccccc2C(F)(F)F)nn2c(C(=O)Nc3cccc(N4CCOCC4)n3)cnc2c1C [Compound 227] | B (EC1.5 1-25 μM) | ≥ 350% | A (EC1.5<1 μM) | ≥ 350% |  |  |  |  | 
Cc1cc(NC(=O)c2cnc3ccc(-c4ccccc4F)nn23)ccn1 [Compound 242] | B (EC1.5 1-25 μM) | < 350% | B (EC1.5 1-25 μM) | < 350% |  |  |  |  | 
Cc1cnc(C(=O)Nc2cnn3ccc(-c4ccccc4OC(F)(F)F)nc23)cn1 [Compound 734] | C (EC1.5>25 μM) | < 350% | B (EC1.5 1-25 μM) | ≥ 350% |  |  |  |  | 
Cc1cc(-c2ccccc2C(F)(F)F)nn2c(NC(=O)c3cccc(N4CCOCC4)n3)cnc12 [Compound 425] |  |  |  |  |  |  |  |  | Trp EC1.5 (SIRT1 [1]; [7]): A (EC1.5<1 μM); Emax (SIRT1 [1]; [8]): ≥ 350%; TAMRA EC1.5 (SIRT1 [2]; [9]): A (EC1.5<1 μM); Emax (SIRT1 [2]; [10]): ≥ 350%
O=C(Nc1cccc(CN2CCOCC2)n1)c1cnc2ccc(-c3cccc(Cl)c3F)nn12 [Compound 140] |  |  |  |  | B (EC1.5 1-25 μM) | < 350% | A (EC1.5<1 μM) | ≥ 350% | 
O=C(Nc1cccc(N2CCC2)n1)c1cnc2ccc(-c3ccccc3C(F)F)nn12 [Compound 51] |  |  |  |  | B (EC1.5 1-25 μM) | ≥ 350% | A (EC1.5<1 μM) | ≥ 350% | 
O=C(Nc1cnccc1N1CCOCC1)c1cnc2ccc(-c3ccccc3C(F)(F)F)nn12 [Compound 177] |  |  |  |  | C (EC1.5>25 μM) | < 350% | C (EC1.5>25 μM) | < 350% | 
Cc1c(-c2ccccc2C(F)(F)F)nn2c(NC(=O)c3cccc(N4CCCC4)n3)cnc2c1C [Compound 421] |  |  |  |  |  |  |  |  | Trp EC1.5 (SIRT1 [1]; [7]): A (EC1.5<1 μM); Emax (SIRT1 [1]; [8]): ≥ 350%; TAMRA EC1.5 (SIRT1 [2]; [9]): A (EC1.5<1 μM); Emax (SIRT1 [2]; [10]): ≥ 350%
COCCOc1nccc(NC(=O)c2cnc3ccc(-c4ccccc4C(F)(F)F)nn23)n1 [Compound 634] | A (EC1.5<1 μM) | ≥ 350% | A (EC1.5<1 μM) | ≥ 350% |  |  |  |  | 
Cc1cc(C)nc(NC(=O)c2c(C)nc3ccc(-c4cccc(OC[C@H](O)CO)c4)nn23)c1 [Compound 791] | B (EC1.5 1-25 μM) | < 350% | A (EC1.5<1 μM) | ≥ 350% |  |  |  |  | 
O=C(Nc1ccccn1)c1cnn2ccc(-c3ccccc3OC(F)(F)F)nc12 [Compound 529] |  |  |  |  |  |  |  |  | Trp EC1.5 (SIRT1 [1]; [7]): A (EC1.5<1 μM); Emax (SIRT1 [1]; [8]): < 350%; TAMRA EC1.5 (SIRT1 [2]; [9]): A (EC1.5<1 μM); Emax (SIRT1 [2]; [10]): ≥ 350%
O=C(Nc1cccc(CN2CCOCC2)n1)c1cnn2ccc(-c3ccccc3C(F)(F)F)nc12 [Compound 269] | B (EC1.5 1-25 μM) | ≥ 350% | A (EC1.5<1 μM) | ≥ 350% |  |  |  |  | 
O=C(Nc1cnc2ccc(-c3ccccc3F)nn12)c1ccccn1 [Compound 279] | C (EC1.5>25 μM) | < 350% | B (EC1.5 1-25 μM) | < 350% |  |  |  |  | 
Cc1nc2c(C)cc(-c3ccccc3OC(F)(F)F)nn2c1C(=O)Nc1cccc(N2CC3(COC3)C2)n1 [Compound 545] |  |  |  |  |  |  |  |  | Trp EC1.5 (SIRT1 [1]; [7]): A (EC1.5<1 μM); Emax (SIRT1 [1]; [8]): ≥ 350%; TAMRA EC1.5 (SIRT1 [2]; [9]): A (EC1.5<1 μM); Emax (SIRT1 [2]; [10]): ≥ 350%
O=C(Nc1nc(CN2CCOCC2)cs1)c1cnc2ccc(-c3ccc(F)c(F)c3)nn12 [Compound 44] |  |  |  |  | B (EC1.5 1-25 μM) | < 350% | B (EC1.5 1-25 μM) | < 350% | 
O=C(Nc1ccccn1)c1cnc2ccc(-c3c(F)cccc3F)nn12 [Compound 167] |  |  |  |  | C (EC1.5>25 μM) | < 350% | C (EC1.5>25 μM) | < 350% | 
CN(C)c1cccc(NC(=O)c2cnc3ccc(-c4ccccc4C(F)(F)F)nn23)n1 [Compound 104] |  |  |  |  | B (EC1.5 1-25 μM) | < 350% | A (EC1.5<1 μM) | ≥ 350% | 
N#Cc1ccccc1-c1ccc2ncc(NC(=O)c3cccc(OCC(O)CO)n3)n2n1 (stereo not drawn) [Compound 339] | A (EC1.5<1 μM) | < 350% | A (EC1.5<1 μM) | ≥ 350% |  |  |  |  | 
O=C(Nc1ccnc(N2CCC2)c1)c1cnc2ccc(-c3cncc(C(F)F)c3)nn12 [Compound 62] |  |  |  |  | C (EC1.5>25 μM) | < 350% | B (EC1.5 1-25 μM) | < 350% | 
O=C(Nc1cccc(CN2CCOCC2)n1)c1cnc2ccc(-c3ccc(F)c(F)c3)nn12 [Compound 43] |  |  |  |  | C (EC1.5>25 μM) | < 350% | B (EC1.5 1-25 μM) | < 350% | 

Now from value to compound, other results behind:

Trp EC1.5 (μM) (SIRT1 [1]; [3]) | Emax (SIRT1 [1]; [4]) | TAMRA EC1.5 (μM) (SIRT1 [2]; [5]) | Emax (SIRT1 [2]; [6]) | Trp EC1.5 (μM) (SIRT1 [1]; [11]) | Emax (SIRT1 [1]; [12]) | TAMRA EC1.5 (μM) (SIRT1 [2]; [13]) | Emax (SIRT1 [2]; [14]) | Structure (SMILES) | also measured
C (EC1.5>25 μM) | < 350% | A (EC1.5<1 μM) | ≥ 350% |  |  |  |  | Cc1cccnc1C(=O)Nc1cnn2ccc(-c3ccccc3C(F)(F)F)nc12 [Compound 746] | 
B (EC1.5 1-25 μM) | ≥ 350% | A (EC1.5<1 μM) | ≥ 350% |  |  |  |  | Cc1nc2ccc(-c3ccccc3C(F)(F)F)nn2c1NC(=O)c1cccc(N2CCC2)n1 [Compound 383] | 
A (EC1.5<1 μM) | ≥ 350% | A (EC1.5<1 μM) | ≥ 350% |  |  |  |  | Cc1nn2ccc(-c3ccccc3C(F)(F)F)nc2c1C(=O)Nc1cccnn1 [Compound 695] | 
B (EC1.5 1-25 μM) | < 350% | A (EC1.5<1 μM) | ≥ 350% |  |  |  |  | COc1cc(NC(=O)c2cnc3ccc(-c4ccccc4C(F)(F)F)nn23)ncn1 [Compound 197] | 
A (EC1.5<1 μM) | ≥ 350% | A (EC1.5<1 μM) | ≥ 350% |  |  |  |  | Cc1nn2ccc(-c3ccccc3C(F)(F)F)nc2c1C(=O)Nc1ccnc(O)c1 [Compound 784] | 
 |  |  |  | A (EC1.5<1 μM) | ≥ 350% | A (EC1.5<1 μM) | ≥ 350% | O=C(Nc1ccnc(N2CCC2)c1)c1cnc2ccc(-c3ccccc3C(F)(F)F)nn12 [Compound 50] | 
B (EC1.5 1-25 μM) | ≥ 350% | B (EC1.5 1-25 μM) | ≥ 350% |  |  |  |  | Cc1cc2ncc(C(=O)Nc3ccncc3)n2nc1-c1ccccc1C(F)(F)F [Compound 223, 7-methyl-N-(pyridin-4-yl)-6-(2-(trifluoromethyl)phenyl)imidazo[1,2-b]pyridazine-3-carboxamide] | 
A (EC1.5<1 μM) | ≥ 350% | B (EC1.5 1-25 μM) | < 350% |  |  |  |  | Cc1cccnc1NC(=O)c1cnn2ccc(-c3ccccc3OC(F)(F)F)nc12 [Compound 701] | 
B (EC1.5 1-25 μM) | < 350% | C (EC1.5>25 μM) | < 350% |  |  |  |  | Cc1cnc(NC(=O)c2cnn3ccc(-c4ccccc4C(F)(F)F)nc23)c(C)n1 [Compound 724] | 

— US9957271B2, “Substituted bicyclic aza-heterocycles and analogues as sirtuin modulators” (GlaxoSmithKline, LLC, priority 2012, dated 2018)
